Here are results for seven molecules from patent US6905834B1, “Bioluminescent bioreporter integrated circuit detection methods” (UT-Battelle, LLC, priority 1997, dated 2005).

SMILES strings stand for the structures. Like-named read-outs stand apart in the source and are kept apart here. Marks after values point to notes of the source that are not given here.

One series concerns P. putida TVA8. The class given is cell-based, Pseudomonas putida. The note with it: for light response (in words): approximately 50 mg/L (JP-4 approx. 2%), 2 h; for Specific Bioluminescence: approximately 50 mg/L.
In a further series the test system is P. putida B2. The series is described as follows: Immobilized cell reactor (DVR) with alginate-encapsulated P. putida B2: bioluminescence and TCE co-metabolism. Type of series: cell-based, Pseudomonas putida. The procedure: In the batch and reactor studies, bioluminescence was measured using a photomultiplier, which converts the light to an electric current. The photomultiplier in the resting cell assays and the reactor system was connected to a computer and bioluminescence as namps current was recorded.
P. putida B2 was encapsulated in alginate beads for the immobilized cell reactor system. Cells were grown in 1 L LB to an OD546 of 1.2 and were centrifuged at 5500×g for 10 min, washed three times in 0.9% NaCl and suspended in 40 ml 0.9% NaCl. The cell suspension was added to 80 ml of an alginic acid solution (28 g L^−1 low viscosity alginate, 0.9% NaCl) (Webb, 1992). The cell-alginate suspension was placed in a 60-ml syringe, forced through a 25-gauge needle, and allowed to drop into a 0.5 M CaCl2 Solution. The alginate was cross-linked by the Ca^2+ ions, thus encapsulating the cells. The cells were subsequently placed in a fresh solution of 0.1 M CaCl2 and allowed to sit for 30 min prior to use.
A differential volume reactor (DVR) was used to simulate a section of an ideal plug flow reactor. Influent to the reactor was dispersed through a porous metal frit to provide a flat velocity profile to the bed. The reactor measured 5.0 cm i.d.×5.0 cm long. A complete description of this reactor can be found in Webb et al. (1991). In this investigation, a system was designed incorporating the DVR as illustrated in FIG. 17. The system was equipped with three Millipore (Bedford, Mass.) stainless steel substrate containers rated to 690 kPa. The feed from the substrate vessels to the reactor inlet was controlled by two Filson (Middleton, Wis.) 301 HPLC pumps. A flow rate of 0.4 ml min^−1 was maintained. The substrate vessels were pressurized with oxygen to provide the system with an electron acceptor. All medium vessels contained trace mineral medium (Lackey et al., 1993) with the addition of 3 mg L^−1 pyruvic acid and a 0.1 M solution of Tris-base (pH 7.0). phosphate buffers were not used since phosphate ions complex with Ca^2+ ions and disrupt with alginate crosslinking. In addition to this medium, two of the vessels contained either TCE or toluene. The inlet concentration of toluene was altered by using square-wave perturbations with 20-h cycles (10 h with toluene, 10 h without toluene) using an HPLC pump controlled by a timer. During feed portions of the cycle, 10 mg L^−1 toluene was introduced into the inlet of the reactor. The inlet TCE concentration was constant at 20 mg L^−1.
Analysis of TCE in the reactor effluent was performed online using a stripping column (12.5 cm length and 0.4 cm inner diameter) packed with 3-mm glass beads to provide adequate surface area for TCE separation. TCE was stripped with helium, the GC carrier gas. The stripping column outlet was attached to a gas chromatograph (GC, Hewlett Packard (Wilmington, Del.) (HP) 5890 Series II) with an electron capture detector by a heated sample line maintained at 75° C. Automatic injections (25 μl) were made by a computerized control process (HP Chem Station software). The GC was equipped with a cross-linked methyl silicone capillary column (length 30 n, i.d 0.2 mm, 0.33-μm film thickness) while the oven was operated isothermally at 60° C. Other operating parameters included an injection temperature of 150° C., detector temperature of 200° C. and a split ratio of 10:1. This system was equipped with a bypass line around the reactor in order to calibrate the stripping column.
Toluene samples were removed at 0.5-ml aliquots from the effluent sampling port (FIG. 17) and injected into 1.5 ml sample vials. Headspace analysis was performed using a Shimadzu (Columbia, Md.) GC-9A gas chromatograph equipped with a 2.44-m, 3.2-mm diameter Poropak N packed column and a flame ionization detector. The isothermal temperature of the oven was 210° C., and both the detector and injector temperatures were 220° C.

Where [1] appears, read: exposure 2 hours, normalized to final OD546, average ± SD of three replicates.
The mark [2] stands for this setting: inlet TCE 20 mg/L, toluene being introduced.

Turning to `Oc1ccccc1` [Phenol, phenol], in the series with P. putida TVA8, the “light response (in words)” value is recorded as “significant light response”. The “Specific Bioluminescence” value in the series on P. putida TVA8 (setting [1]) is given as 70 ± 2 namp/OD.

In the case of `CCc1ccccc1` [Ethylbenzene, ethylbenzene], in the series on P. putida TVA8 (50 mg/L, cells previously grown on ethylbenzene, growing cell assays), the “induction of bioluminescence response in pre-grown cells” value is “induce the bioluminescence response without a lag period”. Besides, the “Specific Bioluminescence” value in the series on P. putida TVA8 (setting [1]) is reported as 1.0 ± 0.2 namp/OD; in the series on P. putida TVA8 (exposure 4 hours, from a similar but separate study), 47 ± 6^c namp/OD.

As for `Cc1cccc(C)c1` [m-xylene], in the series with P. putida TVA8, the “light response (in words)” value is recorded as “significant light response”. In addition, in the series with P. putida TVA8 (setting [1]), the “Specific Bioluminescence” value amounted to 38 ± 3 namp/OD.

With `Cc1ccc(C)cc1` [p-xylene], the “light response (in words)” value with P. putida TVA8 is given as “significant light response”. Also, the “Specific Bioluminescence” value in the series on P. putida TVA8 (setting [1]) is on record as 24 ± 2 namp/OD.

Turning to `ClC=C(Cl)Cl` [TCE, trichloroethylene], the “toxic effects of continuous TCE exposure (in words)” value with P. putida B2 (20 mg/l TCE) was “there did not appear to be any toxic effects”. Moreover, in the series on P. putida B2 (absence of toluene, 20 mg/L TCE), the “induction of the tod operon by TCE (in words)” value is given as “did not appear to induce the tod operon”. Moreover, in the series on P. putida B2 (setting [2]), the TCE removal is recorded as 20% and the “steady-state TCE effluent concentration” value amounted to 16.5 ± 0.2 mg/L.

Consider `c1ccccc1` [Benzene, benzene], for which the “light response (in words)” value in the series on P. putida TVA8 is on record as “significant light response”. Also, the “Specific Bioluminescence” value in the series on P. putida TVA8 (setting [1]) turned out to be 242 ± 9 namp/OD.

For `Cc1ccccc1C` [o-xylene], in the series with P. putida TVA8, the “light response (in words)” value was “no increase of bioluminescence”. Besides, the “Specific Bioluminescence” value with P. putida TVA8 (setting [1]) was found to be 0.5 ± 0.1 namp/OD.
